This passage reports MIC and IC50 results from patent US5679689A, “Quinolone- and naphthyridonecarboxylic acid derivatives” (Bayer Aktiengesellschaft, priority 1994, dated 1997).

In brackets after ≈: the same amount, converted by molar mass.

One data set relates to Bac. fragilis ES 25. As to the kind of experiment: Minimum inhibitory concentration (MIC), serial dilution on Iso-Sensitest Agar. Type of data set: cell-based. To be noted: Bacteroides fragilis, ES25, 37° C., about 20 hours. The procedure: (§1) The minimum inhibitory concentration (MIC) were determined by a serial dilution method on Iso-Sensitest Agar (Oxoid). For each test substance, a number of agar plates were prepared which, with doubled dilution in each case, contained decreasing concentrations of the active compound. The agar plates were inoculated using a multipoint inoculator (Denley). For inoculation, overnight cultures of the pathogens were used which had previously been diluted such that each inoculation point contained about […] colony-forming particles. The inoculated agar plates were incubated at 37° C. and the microorganism growth was read off after about 20 hours. The MIC value (μg/ml) indicates the lowest active compound concentration at which no growth could be detected using the naked eye.

Another data set deals with Ps. aeruginosa Walter. Described as above. Type of data set: cell-based. To be noted: Pseudomonas aeruginosa, 37° C., about 20 hours. The method, then:
as §1

The test system of the next data set is Staph. aureus 133. Described as above. Type of data set: cell-based. To be noted: Staphylococcus aureus, 37° C., about 20 hours. The procedure:
as §1

Another data set concerns Staph. aureus ICB 25701. The data set is described as above. The class given is cell-based. Particulars: Staphylococcus aureus, ICB25701, 37° C., about 20 hours. The procedure: (§2) In the following Tables 9 and 10, the minimum inhibitory concentration are shown as a measure of the antibacterial activity and the ID50 values as a measure of the interactions with mammalian DNA of a substance both for compounds according to the invention and for reference compounds from the prior art (EP 520 240).
as §1

In a further data set the test system is E. coli Neumann. Described as above. Type of data set: cell-based. Particulars: Escherichia coli, 37° C., about 20 hours. The procedure: as §2, §1
A short description of data set [1]: Inhibition of DNA synthesis in CHO-KI cells (interaction with mammalian DNA), fluorophotometric. Type of data set: cell-based, Chinese hamster. Particulars: hamster, cho-k1 cells; concentration at which DNA synthesis in CHO-KI cells is inhibited by 50%; read-out: ID50 (the source's name).
Excerpt: as §2
ID50 is understood as meaning the concentration of a substance at which the DNA synthesis in cells from ovaries of the Chinese hamster (CHO-KI) is inhibited by 50%. This value is determined over defined time intervals in decreasing dilution steps after incubation of the appropriate substances. To do this, the DNA synthesis in CHO-KI cells is determined in comparison to controls by means of fluorophotometric methods.

Consider `NC12C=CC=CC1CN(c1c(F)cc3c(=O)c(C(=O)O)cn(C4CC4)c3c1F)C2` (stereo not drawn) [Example 2, 7-(3a-amino-1,2,3,7a-tetrahydroisoindol-2-yl)-1-cyclopropyl-6,8-difluoro-1,4-dihydro-4-oxo-3-quinolinecarboxylic acid], for which the minimum inhibitory concentration (MIC) – broadly, the least concentration at which growth counts as inhibited – is 1 µg/mL (≈ 2.5 µM) in the data set on Bac. fragilis ES 25; 1 µg/mL (≈ 2.5 µM) with Ps. aeruginosa Walter; 0.06 µg/mL (≈ 0.15 µM) in the data set with Staph. aureus 133; 2 µg/mL (≈ 5.01 µM) in the data set with Staph. aureus ICB 25701; not above 0.015 µg/mL against E. coli Neumann. Moreover, the IC50 in data set [1] worked out at 32 µg/mL (≈ 80.1 µM).
As for `NC12C=CC=CC1CN(c1c(F)cc3c(=O)c(C(=O)O)cn(C4CC4)c3c1Cl)C2` (stereo not drawn) [Example 3, 7-(3a-amino-1,2,3,7a-tetrahydro-isoindol-2-yl)-8-chloro-1-cyclopropyl-6-fluoro-1,4-dihydro-4-oxo-3-quinolineearboxylic acid], the minimum inhibitory concentration (MIC) in the data set with Bac. fragilis ES 25 is 0.125 µg/mL (≈ 0.301 µM); against Ps. aeruginosa Walter, 0.5 µg/mL (≈ 1.2 µM); in the data set on Staph. aureus 133, not above 0.015 µg/mL; in the data set with Staph. aureus ICB 25701, 0.25 µg/mL (≈ 0.601 µM); in the data set on E. coli Neumann it was not above 0.015 µg/mL. In data set [1], the IC50 was 32 µg/mL (≈ 77 µM).
For `COc1c(N2CC3C=CC=CC3(N)C2)c(F)cc2c(=O)c(C(=O)O)cn(C3CC3)c12` (stereo not drawn) [Example 4, 7-(3a-amino-1,2,3,7a-tetrahydro-isoindolo2-yl)-1-cyclopropyl-6-fluoro-1,4-dihydro-8-methoxy-4-oxo-3-quinolinecarboxylic acid], the MIC was 2 µg/mL (≈ 4.86 µM) in the data set with Bac. fragilis ES 25; 0.5 µg/mL (≈ 1.22 µM) in the data set with Ps. aeruginosa Walter; not above 0.015 µg/mL against Staph. aureus 133; 0.5 µg/mL (≈ 1.22 µM) against Staph. aureus ICB 25701; not above 0.015 µg/mL with E. coli Neumann. The IC50 in data set [1] is more than 64 µg/mL.
With `NC12C=CC=CC1CN(c1c(F)cc3c(=O)c(C(=O)O)cn([C@@H]4C[C@@H]4F)c3c1F)C2` (stereo partly drawn) [Example 8, 7-(3a-amino-1,2,3,7a-tetrahydro-isoindol-2-yl)-6,8-difluoro-1-(cis-2-fluorocydopropyl)-1,4-dihydro-4-oxo-3-quinolineearboxylic acid], the MIC in the data set with Bac. fragilis ES 25 is 0.5 µg/mL (≈ 1.2 µM); against Ps. aeruginosa Walter, 0.5 µg/mL (≈ 1.2 µM); with Staph. aureus 133, 0.03 µg/mL (≈ 0.0719 µM); in the data set on Staph. aureus ICB 25701, 0.5 µg/mL (≈ 1.2 µM); against E. coli Neumann, not above 0.015 µg/mL. The IC50 in data set [1] turned out to be 16 µg/mL (≈ 38.3 µM).
With `NC12C=CC=CC1CN(c1nc3c(cc1F)c(=O)c(C(=O)O)cn3C1CC1)C2` (stereo not drawn) [Example 9, 7-(3a-amino-1,2,3,7a-tetrahydro-isoindol-2-yl)-1-cyclopropyl-6-fluoro-1,4-dihydro-4-oxo-1,8-naphthyridine-3-carboxylic acid], the MIC with Bac. fragilis ES 25 was 4 µg/mL (≈ 10.5 µM); with Ps. aeruginosa Walter, 1 µg/mL (≈ 2.62 µM); against Staph. aureus 133, 0.06 µg/mL (≈ 0.157 µM); with Staph. aureus ICB 25701, 8 µg/mL (≈ 20.9 µM); in the data set on E. coli Neumann, not above 0.015 µg/mL. The IC50 in data set [1] stood at 32 µg/mL (≈ 83.7 µM).
As to `CC1C=CC(N)C2CN(c3c(F)cc4c(=O)c(C(=O)O)cn(C5CC5)c4c3F)CC12` (stereo not drawn) [Ref. 1, 7(4-Amino-7-methyl-1,3,3a,4,7,7a-hexahydro-isoindol-2-yl)-1-cyclopropyl-6 8-difluoro-1,4-dihydro-4-oxo-3-quinolinecarboxylic acid, reference compound], the MIC turned out to be 0.5 µg/mL (≈ 1.2 µM) against Bac. fragilis ES 25; 0.5 µg/mL (≈ 1.2 µM) against Ps. aeruginosa Walter; 0.015 µg/mL (≈ 0.0361 µM) in the data set on Staph. aureus 133; 0.06 µg/mL (≈ 0.144 µM) with Staph. aureus ICB 25701; 0.015 µg/mL (≈ 0.0361 µM) against E. coli Neumann. In addition, the IC50 in data set [1] was 0.015 µg/mL (≈ 0.0361 µM).
With `COc1c(N2CC3C(C)C=CC(N)C3C2)c(F)cc2c(=O)c(C(=O)O)cn(C3CC3)c12` (stereo not drawn) [Ref. 2, 7(4-Amino-7-methyl-1,3,3a,4,7,7a-hexahydro-isoindol-2-yl)-1-cyclopropyl-6 fluoro-1,4-dihydro-8-methoxy-4-oxo-3-quinolinecarboxylic acid, reference compound], the MIC in the data set with Bac. fragilis ES 25 was determined as 0.25 µg/mL (≈ 0.585 µM); in the data set on Ps. aeruginosa Walter, 1 µg/mL (≈ 2.34 µM); with Staph. aureus 133, 0.015 µg/mL (≈ 0.0351 µM); in the data set on Staph. aureus ICB 25701, 0.015 µg/mL (≈ 0.0351 µM); in the data set with E. coli Neumann it was 0.015 µg/mL (≈ 0.0351 µM). For the same compound, the IC50 in data set [1] was found to be 0.1 µg/mL (≈ 0.234 µM).
With `CC1C=CC(N)C2CN(c3c(F)cc4c(=O)c(C(=O)O)cn(C5CC5)c4c3Cl)CC12` (stereo not drawn) [Ref. 3, 7(4-Amino-7-methyl-1,3,3a,4,7,7a-hexahydro-isoindol-2-yl)-8-chloro-1-cycl propyl-6-fluoro-1,4-dihydro-4-oxo-3-quinolinecarboxylic acid, reference compound], the MIC against Bac. fragilis ES 25 turned out to be 0.125 µg/mL (≈ 0.289 µM); in the data set with Ps. aeruginosa Walter it was 0.5 µg/mL (≈ 1.16 µM); in the data set on Staph. aureus 133, 0.015 µg/mL (≈ 0.0347 µM); against Staph. aureus ICB 25701, 0.015 µg/mL (≈ 0.0347 µM); in the data set with E. coli Neumann, 0.015 µg/mL (≈ 0.0347 µM). The IC50 in data set [1] was determined as 0.1 µg/mL (≈ 0.232 µM).
